The text below walks through data of US20110105509A1 (Wyeth, LLC, priority 2009, published 2011).

What is called IC50 is the concentration that inhibits the measured activity by half. Lower therefore signals greater potency.

The target of this test is T1, CRTH2 (Homo sapiens, UniProt Q9Y5Y4).
T1 construct: expressed in transfected cells; host or cells: CHO cells
T1 sequence (Q9Y5Y4 1-395): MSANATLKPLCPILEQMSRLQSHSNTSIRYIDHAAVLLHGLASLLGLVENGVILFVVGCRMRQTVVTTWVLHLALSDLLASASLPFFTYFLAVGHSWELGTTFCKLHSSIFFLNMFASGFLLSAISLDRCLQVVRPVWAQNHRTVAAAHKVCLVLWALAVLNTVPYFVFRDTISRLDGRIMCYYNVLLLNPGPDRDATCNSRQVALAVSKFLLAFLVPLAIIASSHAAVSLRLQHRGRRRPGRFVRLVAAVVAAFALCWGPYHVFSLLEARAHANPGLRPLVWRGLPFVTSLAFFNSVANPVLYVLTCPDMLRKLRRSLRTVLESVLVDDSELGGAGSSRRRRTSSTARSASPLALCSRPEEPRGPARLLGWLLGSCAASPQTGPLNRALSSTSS
As to the kind of experiment: FRET based competitive immunoassay (cAMP) in CRTH2 expressing CHO cells. To be noted: CRTH2 expressing CHO cells incubated with forskolin and PGD2; Eu3+ cryptate-labeled anti-cAMP and d2-labeled cAMP. Type of test: cell-based. As for the experimental part: FRET Assay: To evaluate potency compounds were tested in a FRET based competitive immunoassay in which CRTH2 expressing CHO cells were incubated in the presence of forskolin and PGD2 along with Eu3+ cryptate-labeled anti-cAMP and d2-labeled cAMP.
For the compound `Cc1c(-c2nn(-c3ccc(C(F)(F)F)cc3)c(=O)c3ccccc23)c2cc(F)ccc2n1CC(=O)O` [Example 206, 2-(5-fluoro-2-methyl-3-(4-oxo-3-(4-(trifluoromethyl)phenyl)-3,4-dihydrophthalazin-1-yl)-1H-indol-1-yl)acetic acid], the IC50 came to 320 nM.

As for `COc1ccc(Cn2nc(-c3c(C)n(CC(=O)O)c4ccc(Cl)cc34)ccc2=O)cc1` [Example 148, 2-(5-chloro-3-(1-(4-methoxybenzyl)-6-oxo-1,6-dihydropyridazin-3-yl)-2-methyl-1H-indol-1-yl)acetic acid], the IC50 stood at 42 nM. Compared with the last compound, the IC50 is about 7.6-fold lower.

As for `Cc1c(-c2ccc(=O)n(Cc3ccccc3)c2)c2cc(F)ccc2n1CC(=O)NS(=O)(=O)C1CC1` [Example 319, 2-(3-(1-Benzyl-6-oxo-1,6-dihydropyridin-3-yl)-5-fluoro-2-methyl-1H-indol-1-yl)-N-(cyclo-propyl-sulfonyl)acetamide], the IC50 is above 1000 nM.

In the case of `Cc1c(-c2nn(Cc3ccccc3)c(=O)c3ccccc23)c2cc(Cl)cc(F)c2n1CC(=O)O` [Example 11, 2-(3-(3-Benzyl-4-oxo-3,4-dihydrophthalazin-1-yl)-5-chloro-7-fluoro-2-methyl-1H-indol-1-yl)acetic acid], the IC50 was 39 nM.

On to `Cc1c(-c2nn(Cc3ccncc3)c(=O)c3ccccc23)c2cc(F)ccc2n1CC(=O)O` [Example 134, 2-(5-fluoro-2-methyl-3-(4-oxo-3-(pyridin-4-ylmethyl)-3,4-dihydrophthalazin-1-yl)-1H-indol-1-yl)acetic acid], for which the IC50 stood at 3 nM.

`Cc1c(-c2ccc(=O)n(Cc3cccc(F)c3)n2)c2cc(F)ccc2n1CC(=O)O` [Example 154, 2-(5-Fluoro-3-(1-(3-fluorobenzyl)-6-oxo-1,6-dihydropyridazin-3-yl)-2-methyl-1H-indol-1-yl)acetic acid] displayed an IC50 of 30 nM.

Regarding `Cc1c(-c2ccc(=O)n(CCC(C(F)(F)F)C(F)(F)F)c2)c2cc(F)ccc2n1CC(=O)O` [Example 316, 2-(5-fluoro-2-methyl-3-(6-oxo-1-(4,4,4-trifluoro-3-(trifluoromethyl)butyl)-1,6-dihydropyridin-3-yl)-1H-indol-1-yl)acetic acid], the IC50 turned out to be 39 nM.

With `Cc1c(-c2nn(Cc3ccc(C(F)(F)F)cc3)c(=O)c3ccccc23)c2cc(Cl)ccc2n1CC(=O)O` [Example 198, 2-(5-Chloro-2-methyl-3-(4-oxo-3-(4-(trifluoromethyl)benzyl)-3,4-dihydrophthalazin-1-yl)-1H-indol-1-yl)acetic acid], the IC50 was 46 nM.

Regarding `Cc1c(-c2nn(Cc3ccccc3)c(=O)c3ccccc23)c2ccccc2n1CC(=O)N(C)C` [Example 48, 2-(3-(3-Benzyl-4-oxo-3,4-dihydrophthalazin-1-yl)-2-methyl-1H-indol-1-yl)-N,N-dimethylacetamide], the concentration for half-maximal inhibition (IC50) is above 2000 nM.

`Cc1c(-c2nn(Cc3ccccc3)c(=O)c3ccccc23)c2cc(S(C)(=O)=O)cc(Cl)c2n1CC(=O)O` [Example 14, 2-(3-(3-Benzyl-4-oxo-3,4-dihydrophthalazin-1-yl)-7-chloro-2-methyl-5-(methylsulfonyl)-1H-indol-1-yl)acetic acid] registered an IC50 of 169 nM.

For the compound `CC(=O)Nc1cccc2c1c(Cc1ccc(=O)n(Cc3ccc(F)cc3F)n1)c(C)n2CC(=O)O` [Example 55, 2-(4-Acetamido-3-((1-(2,4-difluorobenzyl)-6-oxo-1,6-dihydropyridazin-3-yl)-methyl)-2-methyl-1H-indol-1-yl)acetic acid], the IC50 is above 2000 nM.

For the compound `Cc1c(Cc2ccc(=O)n(Cc3cccc(F)c3F)c2)c2cc(F)ccc2n1CC(=O)O` [Example 28, 2-(3-((1-(2,3-Difluorobenzyl)-6-oxo-1,6-dihydropyridin-3-yl)methyl)-5-fluoro-2-methyl-1H-indol-1-yl)acetic acid], the IC50 came out at 17 nM. That is a double-digit nanomolar value.

For `Cc1c(Cc2ccc(=O)n(Cc3ccccc3)c2)c2cc(F)ccc2n1CC(=O)O` [Example 346, {3-[(1-benzyl-6-oxo-1,6-dihydropyridin-3-yl)methyl]-5-fluoro-2-methyl-1H-indol-1-yl}acetic acid], the IC50 came out at 11 nM.

With `Cc1c(-c2ccc(=O)n(Cc3cccc(F)c3F)c2)c2cc(F)ccc2n1CCO` [Example 305, 1-(2,3-difluorobenzyl)-5-(5-fluoro-1-(2-hydroxyethyl)-2-methyl-1H-indol-3-yl)-pyridin-2(1H)-one], the half-maximal inhibitory concentration (IC50) was above 2000 nM.

Regarding `Cc1c(-c2ccc(=O)n(Cc3ccc(F)cc3F)c2)c2cc(Cl)ccc2n1CC(=O)O` [Example 274, 2-(5-chloro-3-(1-(2,4-difluorobenzyl)-6-oxo-1,6-dihydropyridin-3-yl)-2-methyl-1H-indol-1-yl)acetic acid], the IC50 turned out to be 3 nM.

`Cc1c(-c2nn(Cc3cc(F)c(F)cc3F)c(=O)c3ccccc23)c2cc(Cl)ccc2n1CC(=O)O` [Example 60, 2-(5-chloro-2-methyl-3-(4-oxo-3-(2,4,5-trifluorobenzyl)-3,4-dihydro-phthalazin-1-yl)-1H-indol-1-yl)acetic acid] returned an IC50 of 11 nM.

Compound `Cc1c(-c2ccc(=O)n(Cc3cc(F)c(F)cc3F)c2)c2ccccc2n1CC(=O)O` [Example 286, 2-(2-methyl-3-(6-oxo-1-(2,4,5-trifluorobenzyl)-1,6-dihydropyridin-3-yl)-1H-indol-1-yl)acetic acid] came in with a half-maximal inhibitory concentration (IC50) of 11 nM.

`Cc1c(-c2ccc(=O)n(Cc3ccc(F)cc3)n2)c2cc(Cl)ccc2n1CC(=O)O` [Example 139, 2-(5-Chloro-3-(1-(4-fluorobenzyl)-6-oxo-1,6-dihydropyridazin-3-yl)-2-methyl-1H-indol-1-yl)acetic acid] displayed an IC50 of 24 nM. This IC50 lies about 2.2-fold higher than the previous one.

Consider `Cc1c(-c2nn(CCC(F)(F)F)c(=O)c3ccccc23)c2cc(F)ccc2n1CC(=O)O` [Example 127, 2-(5-fluoro-2-methyl-3-(4-oxo-3-(3,3,3-trifluoropropyl)-3,4-dihydro-phthalazin-1-yl)-1H-indol-1-yl)acetic acid], for which the IC50 was determined as 4 nM.

Compound `Cc1c(-c2ccc(=O)n(Cc3cccc(F)c3F)c2)c2cc(F)ccc2n1CC(=O)O` [Example 269, 2-(3-(1-(2,3-difluorobenzyl)-6-oxo-1,6-dihydropyridin-3-yl)-5-fluoro-2-methyl-1H-indol-1-yl)acetic acid] yielded an IC50 of 1 nM.

`Cc1c(Cc2ccc(=O)n(CCCC(F)(F)F)n2)c2cc(F)ccc2n1CC(=O)O` [Example 344, 2-(5-fluoro-2-methyl-3-((6-oxo-1-(4,4,4-trifluorobutyl)-1,6-dihydropyridazin-3-yl)-methyl)-1H-indol-1-yl)acetic acid]: the half-inhibitory concentration (IC50) was found to be 17 nM.

With `Cc1c(-c2nn(CC(C)(C)O)c(=O)c3ccccc23)c2cc(F)ccc2n1CC(=O)O` [Example 129, 2-(5-fluoro-3-(3-(2-hydroxy-2-methylpropyl)-4-oxo-3,4-dihydrophthalazin-1-yl)-2-methyl-1H-indol-1-yl)acetic acid], the IC50 was 136 nM. This IC50 is about 8-fold higher than that of the compound before.

In turn, `Cc1c(-c2nn(C)c(=O)c3ccccc23)c2ccccc2n1CC(=O)O` [Example 174, 2-(2-methyl-3-(3-methyl-4-oxo-3,4-dihydrophthalazin-1-yl)-1H-indol-1-yl)-acetic acid] gave an IC50 of 980 nM.

`Cc1c(-c2nn(Cc3ccc4ccccc4n3)c(=O)c3ccccc23)c2cc(Cl)ccc2n1CC(=O)O` [Example 103, 2-(5-chloro-2-methyl-3-(4-oxo-3-(quinolin-2-ylmethyl)-3,4-dihydro-phthalazin-1-yl)-1H-indol-1-yl)acetic acid] registered a concentration for half-maximal inhibition (IC50) of 11 nM.

`Cc1c(-c2ccc(=O)n(Cc3nc4ccccc4s3)n2)c2cc(F)ccc2n1CC(=O)O` [Example 153, 2-(3-(1-(benzo[d]thiazol-2-ylmethyl)-6-oxo-1,6-dihydropyridazin-3-yl)-5-fluoro-2-methyl-1H-indol-1-yl)acetic acid] gave an IC50 of 25 nM.

The compound `Cc1c(-c2nn(Cc3ccccc3)c(=O)c3ccccc23)c2cc(F)ccc2n1CC(=O)O` [Example 328, [3-(3-benzyl-4-oxo-3,4-dihydrophthalazin-1-yl)-5-fluoro-2-methyl-1H-indol-1-yl]-acetic acid] registered an IC50 of 12 nM.

Take `Cc1c(-c2ccc(=O)n(Cc3ccccc3)n2)c2cc(S(C)(=O)=O)cc(F)c2n1CC(=O)O` [Example 17, 2-(3-(1-Benzyl-6-oxo-1,6-dihydropyridazin-3-yl)-7-fluoro-2-methyl-5-(methylsulfonyl)-1H-indol-1-yl)acetic acid]: the IC50 is 2780 nM.

For the compound `Cc1c(-c2nn(Cc3ccc(Cl)cc3Cl)c(=O)c3ccccc23)c2cc(F)ccc2n1CC(=O)O` [Example 7, 2-(3-(3-(2,4-dichlorobenzyl)-4-oxo-3,4-dihydrophthalazin-1-yl)-5-fluoro-2-methyl-1H-indol-1-yl)acetic acid], the IC50 stood at 4 nM.
